{"source": "patent US11064704B2", "about": "“Natural product formulations with improved residual insect repellent/deterrent activity” (University of Mississippi, priority 2016, dated 2021)", "tested_on": "mosquitoes", "assay": "in vivo direct skin application bioassay", "conditions": "12.5% application rate", "experimental": "Direct skin application bioassays were conducted by using a powder-free latex glove (Diamond Grip, Microflex Corporation, Reno, Nev.). An opening of 3×4 cm was cut through the glove to fit on dorsal surface of the hand (FIG. 1). After wearing the glove, a wristband was used to avoid the biting on the hand near the border of the glove. Approximately, 500 (±5%), consisting primarily of females were transferred to a test cage (45×45×45 cm) using an aspirator. A series of dosages were tested to determine MED for repellency as well as residual activity against mosquitoes. A single test consisted of covering the hand of a volunteer with a powder-free latex glove and treating 12 cm^2 surface area, cut through the glove, on dorsal surface of the hand. Marked skin surface area was treated with the test compound in 50 μl of total volume. Because of constrain of man power, only one volunteer who was provided with a written informed consent participated in this study. A protocol approved by the University of Mississippi Human Use Institutional Review Board (IRB protocol #15-070) was followed.\nThe test started when the hand treated (3×4 cm area cut through the glove on the dorsal surface) with a test compound was inserted into the mosquito cage. […] Any treatment with […] females biting during 1 min test period was considered as “passed” whereas a treatment with ≥5 bites out of 500 mosquitoes was considered as “failed”. In case of passing the next lower and in case of failure next higher serial dose was tested to reach MED. Additionally, data on the residual repellent activity was recorded by exposing the treatments to the females after every 30 minutes until the treatment failed. Carrot essential oil, carotol and DEET and the mixtures were tested.\nDirect skin application bioassays were conducted by using a powder-free latex glove (Diamond Grip™, Microflex Corporation, Reno, Nev.). An opening of 3×4 cm was cut through the glove to fit on the dorsal surface of the hand. After donning the glove, a wristband was used to avoid biting on the hand near the border of the glove. Approximately 500 (±5%) mosquitoes, consisting primarily of females, were transferred to a test cage (45×45×45 cm) using an aspirator. A series of dosages were tested to determine MED for repellency as well as residual activity against mosquitoes.\nA single test consisted of covering the hand of a volunteer with a powder-free latex glove and treating a 12 cm^2 surface area, cut through the glove, on the dorsal surface of the hand. Marked skin surface area was treated with the test compound in 50 μl of total volume. Because of constraints of man power, only one volunteer who was provided with a written informed consent participated in this study. A protocol approved by the University of Mississippi Human Use Institutional Review Board (IRB Protocol #15-070) was followed.\nThe test started when the hand treated (3×4 cm area cut through the glove on the dorsal surface) with a test compound was inserted into the mosquito cage. […] Any treatment with ≤5 females biting during the 1 min test period was considered as “passed”, whereas a treatment with ≥5 bites out of 500 mosquitoes was considered as “failed”. In case of passing, the next lower, and in case of failure, the next higher, serial dose was tested to reach MED. Additionally, data on the residual repellent activity were recorded by exposing the treatments to the females after every 30 minutes until the treatment failed. Carrot seed essential oil, carotol, geranium and lemon Eucalyptus essential oils, DEET, picaridin and the mixtures were tested."}
{"smiles": "CCCCCCCCCCC(=O)O", "note": "[Undecanoic acid, undecanoic acid, reference compound]", "values": [{"measurement": "residual activity: time post application at which MED reached/crossed", "result": 1.5, "unit": "h"}]}
